The results in this text go back to US9227960B2, “Bisaryl (thio)morpholine derivatives as S1P modulators” (ABBVIE B.V., priority 2010, dated 2016).

For orientation: melting point means the temperature of the solid-liquid transition.

Molecules are shown by their SMILES. Structures can show the parent of a compound that is named as a salt.

The target of one series is T1, human S1P3 receptor (Homo sapiens, UniProt Q99500).
T1 construct: cell line established at Solvay Pharmaceuticals; host or cells: CHO K1 (CHO/Gα16/AEQ/h-S1P3)
As to the kind of experiment: In vitro functional activity (agonism) on human S1P3 receptors, CHO-human-S1P3-Aequorin assay. The series is classed as cell-based. As to conditions: CHO/Gα16/AEQ/h-S1P3 cells, luminescence, read-out: S1P3 pEC50 (converted). The source says:
In Vitro Functional Activity (Agonism) on Human S1P3 Receptors
The CHO-human-S1P3-Aeqorin assay (CHO/Gα16/AEQ/h-S1P3) was established at Solvay Pharmaceuticals. The plasmid DNA coding for the S1P3 receptor (accession number in GenBank NM_005226 was purchased from UMR cDNA resource Centre (Rolla, Mo.). The pcDNA3.1/hS1P3 construct carrying the mitochondrially targeted apo-Aeqorin and Gα16 protein was transfected in CHO K1 cell-line.
(§1) Human-S1P3-Aequorin cells express mitochondrial targeted apo-Aequorin. Cells have to be loaded with coelanterazine, in order to reconstitute active Aequorin. After binding of agonists to the human S1P3 receptor the intracellular calcium concentration increases and binding of calcium to the apo-Aequorin/coelenterazine complex leads to an oxidation reaction of coelenterazine, which results in the production of apo-Aequorin, coelenteramide, CO2 and light (λmax 469 nm). This luminescent response is dependent on the agonist concentration. Luminescence is measured using the MicroBeta Jet (Perkin Elmer). Agonistic effects of compounds are expressed as pEC50. Compounds were tested at a 10 points half log concentration range, and 3 independent experiments were performed in single point's measurements.

The target of the next series is T2, human S1P5 receptor (Homo sapiens, UniProt Q9H228).
T2 construct: host or cells: CHO (AequoScreen recombinant cell line, co-expressing mitochondrially targeted apo-Aequorin)
As to the kind of experiment: In vitro functional activity (agonism) on human S1P5 receptors, CHO-human-S1P5-Aequorin assay. The series is classed as cell-based. The following applies: CHO-human-S1P5-Aequorin cells, luminescence, read-out: S1P5 pEC50 (converted).
Description: In Vitro Functional Activity (Agonism) on Human S1P5 Receptors
as §1, with “The CHO-human-S1P5-Aecorin assay was bought from Euroscreen, Brussels (Euroscreen, Technical dossier, Human Lysophospholid S1P5 (Edg8) receptor, DNA clone and CHO AequoScreen™ recombinant cell-line, catalog no: ES-593-A, September 2006). Human-S1P5-Aequorin” for “Human-S1P3-Aequorin”, “S1P5” for “S1P3”

For another series, the target named is T3, human S1P1 (Homo sapiens, UniProt P21453).
T3 construct: host or cells: CHO-K1
As to the kind of experiment: In vitro functional activity (agonism) on human S1P1 receptors, CHO-K1-Human S1P1-c-AMP assay. In kind it is cell-based. As to conditions: CHO-K1 cells expressing human S1P1, cAMP with Forskolin (HTRF), read-out: S1P1 pEC50 (converted). The procedure: In Vitro Functional Activity (Agonism) on Human S1P1 Receptors
The CHO-K1-Human S1P1-c-AMP assay was performed at Euroscreenfast, Brussels (Euroscreen, Human S1P1 coupling […] (Edg1) receptor, catalog no: FAST-0197C, December 2009).
Recombinant CHO-K1 cells expressing human S1P1, grown to mid-log Phase in culture media without antibiotics, detached, centrifuged and re-suspended. For agonist testing cells are mixed with compound and Forskolin and incubated at room temperature. Cells are lyses and cAMP concentration are estimated, according to the manufacturer specification, With the HTRF kit from CIS-BIO International (cat n° 62AM2PEB).
Agonistic effects of compounds are expressed as a percentage of the activity of the reference compound at its EC100 concentration, EC50 is calculated and results are reported as pEC50. Compounds were tested at a 10 points half log concentration range duplicated in 1 experiment.
Background: TR-FRET usually uses a lanthanide donor and a delayed reading to cut background.

T1 sequence (Q99500 whole entry): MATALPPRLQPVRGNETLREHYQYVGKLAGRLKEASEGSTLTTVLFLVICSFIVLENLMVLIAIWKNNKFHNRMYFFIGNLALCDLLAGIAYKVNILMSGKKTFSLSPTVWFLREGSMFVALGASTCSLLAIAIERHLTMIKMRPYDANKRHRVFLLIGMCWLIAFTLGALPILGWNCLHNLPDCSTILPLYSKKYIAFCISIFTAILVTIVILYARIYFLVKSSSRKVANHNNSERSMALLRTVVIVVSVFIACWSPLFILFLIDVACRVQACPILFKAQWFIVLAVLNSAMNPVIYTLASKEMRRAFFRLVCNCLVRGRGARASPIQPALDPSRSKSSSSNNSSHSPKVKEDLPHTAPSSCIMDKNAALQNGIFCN
T2 sequence (Q9H228 whole entry): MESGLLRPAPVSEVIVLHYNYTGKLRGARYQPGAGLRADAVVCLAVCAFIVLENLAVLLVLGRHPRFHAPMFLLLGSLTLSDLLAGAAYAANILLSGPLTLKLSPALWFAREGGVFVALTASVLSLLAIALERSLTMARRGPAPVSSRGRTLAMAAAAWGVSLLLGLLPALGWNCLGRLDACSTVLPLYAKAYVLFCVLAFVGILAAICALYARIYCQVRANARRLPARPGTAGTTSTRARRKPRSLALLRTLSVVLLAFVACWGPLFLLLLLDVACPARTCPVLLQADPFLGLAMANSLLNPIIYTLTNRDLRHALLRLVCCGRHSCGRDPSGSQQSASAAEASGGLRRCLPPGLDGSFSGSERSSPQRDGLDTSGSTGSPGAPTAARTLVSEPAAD
T3 sequence (P21453 whole entry): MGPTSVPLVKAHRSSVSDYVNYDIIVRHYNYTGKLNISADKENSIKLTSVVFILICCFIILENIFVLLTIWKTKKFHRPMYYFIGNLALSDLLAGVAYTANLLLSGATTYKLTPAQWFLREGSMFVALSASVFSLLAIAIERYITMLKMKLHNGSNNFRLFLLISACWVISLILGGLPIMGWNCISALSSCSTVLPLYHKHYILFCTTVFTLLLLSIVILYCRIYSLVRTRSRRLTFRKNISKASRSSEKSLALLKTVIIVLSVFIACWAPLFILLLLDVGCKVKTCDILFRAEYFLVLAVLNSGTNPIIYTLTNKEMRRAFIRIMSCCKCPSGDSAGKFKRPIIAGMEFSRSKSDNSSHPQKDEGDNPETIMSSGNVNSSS

Compound `Cl.O=C(O)CCN1CCOC(c2ccc(Oc3c(Cl)cccc3Cl)c(Cl)c2)C1` (centres unmarked) showed a melting point of 224 to 227 °C. `Cl.O=C(O)CCN1CCOC(c2ccc(Oc3c(Cl)cccc3Cl)cc2F)C1` (centres unmarked) came in with a melting point of 207 to 209 °C. `Cl.O=C(O)CCN1CCOC(c2ccc(Oc3c(Cl)cccc3Cl)cc2C(F)(F)F)C1` (centres unmarked) had a melting point of 135 to 136 °C.

The compound `Cl.O=C(O)CCN1CCSC(c2ccc(Oc3ccccc3Cl)cc2)C1` (centres unmarked) showed a melting point of 155 to 160 °C.

The compound `Cc1cccc(Oc2ccc(C3CN(CCC(=O)O)CCS3)cc2)c1C.Cl` (centres unmarked) displayed a melting point of 178 to 183 °C. `Cc1cccc(Cl)c1Oc1ccc(C2CN(CCC(=O)O)CCS2)cc1.Cl` (centres unmarked) came in with a melting point of 192.5 to 195 °C. With `Cc1cccc(C)c1Oc1cccc(C2CN(CCC(=O)O)CCO2)c1` (centres unmarked) (as salt: hydrochloride), the melting point lay in the range of 219 to 223 °C. For the compound `Cc1cccc(Oc2ccc(C3CN(CCCC(=O)O)CCO3)cc2)c1C` (centres unmarked) (as salt: hydrochloride) [Compound 87, 4-{2-[4-(2,3-Dimethyl-phenoxy)-phenyl]-morpholin-4-yl}-butyric acid hydrochloride], the melting point was 225 to 227 °C. As for `Cc1cccc(C)c1Nc1ccc(C2CN(CCC(=O)O)CCO2)cc1` (centres unmarked) [Compound 2, 3-{2-[4-(2,6-Dimethyl-phenylamino)-phenyl]-morpholin-4-yl}-propionic acid hydrochloride], the EC50 on human S1P3 receptor was above 10 µM; at human S1P5 receptor, 631 nM. Turning to `O=C(O)CCN1CCOC(c2ccc(C(=O)c3c(Cl)cccc3Cl)cc2)C1` (centres unmarked) [Compound 6, 3-{2-[4-(2,6-Dichloro-benzoyl)-phenyl]-morpholin-4-yl}-propionic acid hydrochloride], the figures for the EC50 on human S1P3 receptor, at human S1P5 receptor and on human S1P1 were above 10 µM, 501 nM and above 3.16 µM, respectively. In the case of `Cc1ccc(Oc2ccc(C3CN(CCC(=O)O)CCO3)cc2)cc1Cl` (centres unmarked) [Compound 15, 3-{2-[4-(3-Chloro-4-methyl-phenoxy)-phenyl]-morpholin-4-yl}-propionic acid hydrochloride], the EC50 is above 10 µM on human S1P3 receptor and 501 nM at human S1P5 receptor. Taken in the same sequence, the figures for `CCCCc1ccc(Oc2ccc(C3CN(CCC(=O)O)CCO3)cc2)cc1` (centres unmarked) [Compound 26, 3-{2-[4-(4-Butyl-phenoxy)-phenyl]-morpholin-4-yl}-propionic acid hydrochloride] were 5.01 µM and 2000 nM. On to `O=C(O)CCN1CCOC(c2ccc(Oc3cccc4ccccc34)cc2)C1` (centres unmarked) [Compound 29, 3-{2-[4-(Naphthalen-1-yloxy)-phenyl]-morpholin-4-yl}-propionic acid hydrochloride], for which the EC50 at human S1P3 receptor was above 10 µM; at human S1P5 receptor, 63.1 nM. In the case of `O=C(O)CCN1CCOC(c2ccc(Oc3ccccc3C(F)(F)F)cc2)C1` (centres unmarked) [Compound 35, 3-{2-[4-(2-Trifluoromethyl-phenoxy)-phenyl]-morpholin-4-yl}-propionic acid hydrochloride], the EC50 at human S1P3 receptor is above 10 µM; on human S1P5 receptor it was 200 nM. The like results for `Cc1ccc(Oc2ccc(C3CN(CCC(=O)O)CCO3)cc2)cc1C` (centres unmarked) [Compound 47, 3-{2-[4-(3,4-Dimethyl-phenoxy)-phenyl]-morpholin-4-yl}-propionic acid hydrochloride] were, in that order, above 10 µM and 200 nM.

As for `O=C(O)CCN1CCOC(c2ccc(Oc3ccc(OCc4ccccc4)cc3)cc2)C1` (centres unmarked) [Compound 57, 3-{2-[4-(4-Benzyloxy-phenoxy)-phenyl]-morpholin-4-yl}-propionic acid hydrochloride], the EC50 at human S1P3 receptor was above 10 µM; at human S1P5 receptor, 2000 nM. Take `Cc1ccc(Oc2ccc(C3CN(CCC(=O)O)CCO3)cc2)cc1` (centres unmarked) [Compound 64, 3-[2-(4-p-Tolyloxy-phenyl)-morpholin-4-yl]-propionic acid hydrochloride]: the values for the EC50 at human S1P3 receptor and on human S1P5 receptor were above 10 µM and 1580 nM, respectively. Regarding `O=C(O)CCN1CCOC(c2ccc(Oc3ccc4ccccc4c3)cc2)C1` (centres unmarked) [Compound 68, 3-{2-[4-(Naphthalen-2-yloxy)-phenyl]-morpholin-4-yl}-propionic acid hydrochloride], the EC50 is above 10 µM at human S1P3 receptor and 631 nM on human S1P5 receptor. With `CC1(C)CN(CCC(=O)O)CC(c2ccc(Oc3c(Cl)cccc3Cl)cc2)O1` (centres unmarked) [Compound 73, 3-{6-[4-(2,6-Dichloro-phenoxy)-phenyl]-2,2-dimethyl-morpholin-4-yl}-propionic acid], the EC50 was 158 nM at human S1P5 receptor and above 3.16 µM at human S1P1. Regarding `Cc1cccc(Oc2ccc(C3(C)CN(CCC(=O)O)CCO3)cc2)c1C` (centres unmarked) [Compound 80, 3-{2-[4-(2,3-Dimethyl-phenoxy)-phenyl]-2-methyl-morpholin-4-yl}-propionic acid hydrochloride], the EC50 at human S1P3 receptor is above 10 µM; at human S1P5 receptor, 631 nM; on human S1P1, above 31.6 µM. As to `Cc1cccc(Oc2ccc(C3CN(CCCC(=O)O)CCO3)cc2)c1C` (centres unmarked) [Compound 87, 4-{2-[4-(2,3-Dimethyl-phenoxy)-phenyl]-morpholin-4-yl}-butyric acid hydrochloride], the EC50 at human S1P5 receptor was 1000 nM.
